Measured values: patent US10988477B2 (Merck Patent GmbH, priority 2018, dated 2021)

molecular target: GCN2 kinase (Homo sapiens, UniProt Q9P2K8); assay: GCN2 enzyme inhibition assay (Transcreener ADP2 fluorescence polarization); format: biochemical; conditions: Enzyme activity for compounds of Formula IV; Ki(app), 280 μM ATP, 25° C.
Method in brief: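 Human GCN2 (4 nM) preincubated 10 min with compound (0–8 μM) and 200 μM (RS)7 peptide in Tris-HCl pH 7.5, NaCl, MgCl2, DTT. Reaction started with 280 μM ATP, run 1 h at 25 °C. ADP detected by Transcreener fluorescence polarization. IC50 and Ki(app) fitted by tight-binding algorithm.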

Chain of GCN2 kinase (Q9P2K8 whole entry): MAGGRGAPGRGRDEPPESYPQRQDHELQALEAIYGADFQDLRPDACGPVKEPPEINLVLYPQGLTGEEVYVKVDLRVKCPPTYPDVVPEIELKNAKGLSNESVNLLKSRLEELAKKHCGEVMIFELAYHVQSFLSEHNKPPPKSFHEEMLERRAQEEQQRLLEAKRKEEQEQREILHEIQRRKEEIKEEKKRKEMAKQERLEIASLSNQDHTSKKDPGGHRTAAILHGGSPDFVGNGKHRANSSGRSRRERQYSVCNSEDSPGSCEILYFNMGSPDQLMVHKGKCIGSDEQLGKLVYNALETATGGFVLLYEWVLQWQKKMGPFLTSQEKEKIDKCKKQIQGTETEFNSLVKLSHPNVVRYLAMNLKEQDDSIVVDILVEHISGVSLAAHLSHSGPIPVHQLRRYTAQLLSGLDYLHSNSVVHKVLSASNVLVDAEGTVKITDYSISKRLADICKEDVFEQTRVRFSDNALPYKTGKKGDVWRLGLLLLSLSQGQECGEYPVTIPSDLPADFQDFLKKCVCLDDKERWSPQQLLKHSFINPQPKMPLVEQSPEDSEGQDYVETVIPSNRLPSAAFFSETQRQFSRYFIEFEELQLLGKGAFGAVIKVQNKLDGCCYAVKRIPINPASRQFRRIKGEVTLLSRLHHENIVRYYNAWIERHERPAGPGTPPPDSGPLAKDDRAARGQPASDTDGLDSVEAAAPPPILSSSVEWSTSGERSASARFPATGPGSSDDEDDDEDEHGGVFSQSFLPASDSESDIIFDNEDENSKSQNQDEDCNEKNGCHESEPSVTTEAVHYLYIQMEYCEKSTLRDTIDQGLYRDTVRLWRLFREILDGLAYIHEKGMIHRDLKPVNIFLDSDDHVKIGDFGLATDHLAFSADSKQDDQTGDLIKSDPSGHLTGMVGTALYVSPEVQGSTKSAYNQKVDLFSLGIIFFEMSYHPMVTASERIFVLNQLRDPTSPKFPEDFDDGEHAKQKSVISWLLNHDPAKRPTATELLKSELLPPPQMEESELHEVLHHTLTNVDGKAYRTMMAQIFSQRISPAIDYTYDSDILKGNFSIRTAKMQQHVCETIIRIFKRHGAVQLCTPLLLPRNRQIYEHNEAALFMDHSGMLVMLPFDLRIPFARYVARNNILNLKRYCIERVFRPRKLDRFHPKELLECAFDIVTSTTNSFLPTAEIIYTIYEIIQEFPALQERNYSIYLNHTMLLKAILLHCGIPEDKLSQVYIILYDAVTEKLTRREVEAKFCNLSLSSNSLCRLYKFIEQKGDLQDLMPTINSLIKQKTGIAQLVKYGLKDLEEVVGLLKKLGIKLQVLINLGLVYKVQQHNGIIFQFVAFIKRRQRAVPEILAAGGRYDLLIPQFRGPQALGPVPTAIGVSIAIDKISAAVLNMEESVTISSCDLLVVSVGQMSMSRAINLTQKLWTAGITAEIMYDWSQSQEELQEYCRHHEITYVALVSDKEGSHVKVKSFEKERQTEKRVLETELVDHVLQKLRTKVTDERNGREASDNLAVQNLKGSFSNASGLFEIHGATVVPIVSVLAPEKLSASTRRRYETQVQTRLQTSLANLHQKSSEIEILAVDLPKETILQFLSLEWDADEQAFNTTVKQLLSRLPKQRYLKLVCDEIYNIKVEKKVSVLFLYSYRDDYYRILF

Ki [nM]	Compound
100 to 1000	CC1(C(N)=O)CCCN(c2ccnc(-c3cnc4cnc(C(F)(F)F)cn34)n2)C1 (stereo not shown) [IV-539, 3-Methyl-1-(2-(6-(trifluoromethyl)imidazo[1,2-a]pyrazin-3-yl)pyrimidin-4-yl)piperidine-3-carboxamide]
100 to 1000	O=C1NCCC12CCCN(c1ccnc(-c3cnc4cnc(C(F)(F)F)cn34)n1)C2 (stereo not shown) [IV-542, 7-(2-(6-(Trifluoromethyl)imidazo[1,2-a]pyrazin-3-yl)pyrimidin-4-yl)-2,7-diazaspiro[4.5]decan-1-one]
100 to 1000	FC(F)(F)c1cn2c(-c3nccc(N4CCCC(n5cncn5)C4)n3)cnc2cn1 (stereo not shown) [IV-547, 3-(4-(3-(1H-1,2,4-Triazol-1-yl)piperidin-1-yl)pyrimidin-2-yl)-6-(trifluoromethyl)imidazo[1,2-a]pyrazine]
100 to 1000	FC(F)(F)c1cn2c(-c3nccc(N4CCC(c5ccncc5)C4)n3)cnc2cn1 (stereo not shown) [IV-550, 3-(4-(3-(Pyridin-4-yl)pyrrolidin-1-yl)pyrimidin-2-yl)-6-(trifluoromethyl)imidazo[1,2-a]pyrazine]
100 to 1000	FC(F)(F)c1cn2c(-c3nccc(N4CCC(c5ccccn5)C4)n3)cnc2cn1 (stereo not shown) [IV-552, 3-(4-(3-(Pyridin-2-yl)pyrrolidin-1-yl)pyrimidin-2-yl)-6-(trifluoromethyl)imidazo[1,2-a]pyrazine]
100 to 1000	FC(F)(F)c1cn2c(-c3nccc(N4CCC(N5CCOCC5)C4)n3)cnc2cn1 (stereo not shown) [IV-553, 4-(1-(2-(6-(Trifluoromethyl)imidazo[1,2-a]pyrazin-3-yl)pyrimidin-4-yl)pyrrolidin-3-yl)morpholine]
100 to 1000	CN1CCCC2(CCN(c3ccnc(-c4cnc5cnc(C(F)(F)F)cn45)n3)C2)C1=O (stereo not shown) [IV-554, 7-Methyl-2-(2-(6-(trifluoromethyl)imidazo[1,2-a]pyrazin-3-yl)pyrimidin-4-yl)-2,7-diazaspiro[4.5]decan-6-one]
100 to 1000	CC1CN(c2ccnc(-c3cnc4cnc(C(F)(F)F)cn34)n2)CC1C (stereo not shown) [IV-555, 3-(4-(3,4-Dimethylpyrrolidin-1-yl)pyrimidin-2-yl)-6-(trifluoromethyl)imidazo[1,2-a]pyrazine]
100 to 1000	FC(F)(F)c1cn2c(-c3nccc(N4CCC(c5ccccc5)C4)n3)cnc2cn1 (stereo not shown) [IV-556, 3-(4-(3-Phenylpyrrolidin-1-yl)pyrimidin-2-yl)-6-(trifluoromethyl)imidazo[1,2-a]pyrazine]
100 to 1000	O=C1CCCN1CC1CCN(c2ccnc(-c3cnc4cnc(C(F)(F)F)cn34)n2)C1 (stereo not shown) [IV-557, 1-((1-(2-(6-(Trifluoromethyl)imidazo[1,2-a]pyrazin-3-yl)pyrimidin-4-yl)pyrrolidin-3-yl)methyl)pyrrolidin-2-one]
100 to 1000	FC(F)(F)c1cn2c(-c3nccc(N4CCC(COc5ccccc5)C4)n3)cnc2cn1 (stereo not shown) [IV-559, 3-(4-(3-(Phenoxymethyl)pyrrolidin-1-yl)pyrimidin-2-yl)-6-(trifluoromethyl)imidazo[1,2-a]pyrazine]
100 to 1000	O=C1NC(=O)C2(CCN(c3ccnc(-c4cnc5cnc(C(F)(F)F)cn45)n3)C2)N1 (stereo not shown) [IV-560, 7-(2-(6-(Trifluoromethyl)imidazo[1,2-a]pyrazin-3-yl)pyrimidin-4-yl)-1,3,7-triazaspiro[4.4]nonane-2,4-dione]
100 to 1000	FC(F)(F)c1cn2c(-c3nccc(N4CCCC4Cc4ccccc4)n3)cnc2cn1 (stereo not shown) [IV-561, 3-(4-(2-Benzylpyrrolidin-1-yl)pyrimidin-2-yl)-6-(trifluoromethyl)imidazo[1,2-a]pyrazine]
100 to 1000	FC(F)(F)c1cn2c(-c3nccc(N4CCC(n5ccnc5)C4)n3)cnc2cn1 (stereo not shown) [IV-564, 3-(4-(3-(1H-Imidazol-1-yl)pyrrolidin-1-yl)pyrimidin-2-yl)-6-(trifluoromethyl)imidazo[1,2-a]pyrazine]
100 to 1000	CN1CC2(CCN(c3ccnc(-c4cnc5cnc(C(F)(F)F)cn45)n3)C2)OCC1=O (stereo not shown) [IV-565, 9-Methyl-2-(2-(6-(trifluoromethyl)imidazo[1,2-a]pyrazin-3-yl)pyrimidin-4-yl)-6-oxa-2,9-diazaspiro[4.5]decan-8-one]
100 to 1000	NC(=O)CN1CCCN(c2ccnc(-c3cnc4cnc(C(F)(F)F)cn34)n2)CC1 [IV-566, 2-(4-(2-(6-(Trifluoromethyl)imidazo[1,2-a]pyrazin-3-yl)pyrimidin-4-yl)-1,4-diazepan-1-yl)acetamide]
100 to 1000	O=C1NCCN2CCN(c3ccnc(-c4cnc5cnc(C(F)(F)F)cn45)n3)CC12 (stereo not shown) [IV-568, 8-(2-(6-(Trifluoromethyl)imidazo[1,2-a]pyrazin-3-yl)pyrimidin-4-yl)hexahydro-2H-pyrazino[1,2-a]pyrazin-1(6H)-one]
100 to 1000	CC1CN(c2ccnc(-c3cnc4cnc(C(F)(F)F)cn34)n2)CC1N1CCOCC1 (stereo not shown) [IV-569, 4-(4-Methyl-1-(2-(6-(trifluoromethyl)imidazo[1,2-a]pyrazin-3-yl)pyrimidin-4-yl)pyrrolidin-3-yl)morpholine]
100 to 1000	O=S1(=O)CCC2CN(c3ccnc(-c4cnc5cnc(C(F)(F)F)cn45)n3)CC21 (stereo not shown) [IV-570, 5-(2-(6-(Trifluoromethyl)imidazo[1,2-a]pyrazin-3-yl)pyrimidin-4-yl)hexahydro-2H-thieno[2,3-a]pyrrole 1,1-dioxide]

Ki [nM]	Compound
100 to 1000	O=C1CN(c2ccnc(-c3cnc4cnc(C(F)(F)F)cn34)n2)CC2CCCCN12 (stereo not shown) [IV-571, 2-(2-(6-(Trifluoromethyl)imidazo[1,2-a]pyrazin-3-yl)pyrimidin-4-yl)octahydro-4H-pyrido[1,2-a]pyrazin-4-one]
100 to 1000	CN1CC2(CCN(c3ccnc(-c4cnc5cnc(C(F)(F)F)cn45)n3)C2)OC1=O (stereo not shown) [IV-579, 3-Methyl-7-(2-(6-(trifluoromethyl)imidazo[1,2-a]pyrazin-3-yl)pyrimidin-4-yl)-1-oxa-3,7-diazaspiro[4.4]nonan-2-one]
100 to 1000	CC1(C(N)=O)CCN(c2ccnc(-c3cnc4cnc(C(F)(F)F)cn34)n2)C1 (stereo not shown) [IV-581, 3-Methyl-1-(2-(6-(trifluoromethyl)imidazo[1,2-a]pyrazin-3-yl)pyrimidin-4-yl)pyrrolidine-3-carboxamide]
100 to 1000	O=C1NCCN1C1CCCN(c2ccnc(-c3cnc4cnc(C(F)(F)F)cn34)n2)C1 (stereo not shown) [IV-584, 1-(1-(2-(6-(Trifluoromethyl)imidazo[1,2-a]pyrazin-3-yl)pyrimidin-4-yl)piperidin-3-yl)imidazolidin-2-one]
100 to 1000	CN1CCN(c2ccnc(-c3cnc4cnc(C(F)(F)F)cn34)n2)CC1 [IV-585, 3-(4-(4-Methylpiperazin-1-yl)pyrimidin-2-yl)-6-(trifluoromethyl)imidazo[1,2-a]pyrazine]
100 to 1000	COCC1CN(c2ccnc(-c3cnc4cnc(C(F)(F)F)cn34)n2)CC(C)O1 (stereo not shown) [IV-586, 2-(Methoxymethyl)-6-methyl-4-(2-(6-(trifluoromethyl)imidazo[1,2-a]pyrazin-3-yl)pyrimidin-4-yl)morpholine]
100 to 1000	COCC1CN(c2ccnc(-c3cnc4cnc(C(F)(F)F)cn34)n2)CC(C)O1 (stereo not shown) [IV-587, 2-(Methoxymethyl)-6-methyl-4-(2-(6-(trifluoromethyl)imidazo[1,2-a]pyrazin-3-yl)pyrimidin-4-yl)morpholine]
100 to 1000	COCC1CN(c2ccnc(-c3cnc4cnc(C(F)(F)F)cn34)n2)CCO1 (stereo not shown) [IV-588, 2-(Methoxymethyl)-4-(2-(6-(trifluoromethyl)imidazo[1,2-a]pyrazin-3-yl)pyrimidin-4-yl)morpholine]
10 to 100	CSCC1CCN(c2ccnc(-c3cnc4cnc(C(F)(F)F)cn34)n2)C1 (stereo not shown) [IV-594, 3-(4-(3-((Methylthio)methyl)pyrrolidin-1-yl)pyrimidin-2-yl)-6-(trifluoromethyl)imidazo[1,2-a]pyrazine]
100 to 1000	NC(=O)C1CN(c2ccnc(-c3cnc4cnc(C(F)(F)F)cn34)n2)CCN1 (stereo not shown) [IV-595, 4-(2-(6-(Trifluoromethyl)imidazo[1,2-a]pyrazin-3-yl)pyrimidin-4-yl)piperazine-2-carboxamide]
100 to 1000	CN1CCN(c2ccnc(-c3cnc4cnc(C(F)(F)F)cn34)n2)CC1C(N)=O (stereo not shown) [IV-596, 1-Methyl-4-(2-(6-(trifluoromethyl)imidazo[1,2-a]pyrazin-3-yl)pyrimidin-4-yl)piperazine-2-carboxamide]
100 to 1000	NC(=O)C1CCN(c2ccnc(-c3cnc4cnc(C(F)(F)F)cn34)n2)C1 (stereo not shown) [IV-598, 1-(2-(6-(Trifluoromethyl)imidazo[1,2-a]pyrazin-3-yl)pyrimidin-4-yl)pyrrolidine-3-carboxamide]
100 to 1000	NC(=O)C1CN(c2ccnc(-c3cnc4cnc(C(F)(F)F)cn34)n2)CCO1 (stereo not shown) [IV-599, 4-(2-(6-(Trifluoromethyl)imidazo[1,2-a]pyrazin-3-yl)pyrimidin-4-yl)morpholine-2-carboxamide]
100 to 1000	FC(F)(F)c1cn2c(-c3nccc(N4CCCC(n5ccnn5)C4)n3)cnc2cn1 (stereo not shown) [IV-600, 3-(4-(3-(1H-1,2,3-Triazol-1-yl)piperidin-1-yl)pyrimidin-2-yl)-6-(trifluoromethyl)imidazo[1,2-a]pyrazine]
100 to 1000	O=C1CN(C2CCN(c3ccnc(-c4cnc5cnc(C(F)(F)F)cn45)n3)C2)CCN1 (stereo not shown) [IV-602, 4-(1-(2-(6-(Trifluoromethyl)imidazo[1,2-a]pyrazin-3-yl)pyrimidin-4-yl)pyrrolidin-3-yl)piperazin-2-one]
100 to 1000	C[S+]([O-])CC1CCN(c2ccnc(-c3cnc4cnc(C(F)(F)F)cn34)n2)C1 (stereo not shown) [IV-603, 3-(4-(3-((Methylsulfinyl)methyl)pyrrolidin-1-yl)pyrimidin-2-yl)-6-(trifluoromethyl)imidazo[1,2-a]pyrazine]
100 to 1000	CS(=O)(=O)CC1CCN(c2ccnc(-c3cnc4cnc(C(F)(F)F)cn34)n2)C1 (stereo not shown) [IV-604, 3-(4-(3-((methylsulfonyl)methyl)pyrrolidin-1-yl)pyrimidin-2-yl)-6-(trifluoromethyl)imidazo[1,2-a]pyrazine]
100 to 1000	NC(=O)CC1CCN(c2ccnc(-c3cnc4cnc(C(F)(F)F)cn34)n2)CC1 [IV-605, 2-(1-(2-(6-(Trifluoromethyl)imidazo[1,2-a]pyrazin-3-yl)pyrimidin-4-yl)piperidin-4-yl)acetamide]
